Measured values taken from ChEMBL document CHEMBL3233009, “Pyrazoles as non-classical bioisosteres in prolylcarboxypeptidase (PrCP) inhibitors” (Bioorg Med Chem Lett, 2014).

Columns and labels:
[1] = biological target: T1, Lysosomal Pro-X carboxypeptidase (Mus musculus, UniProt Q7TMR0); assay: Inhibition of recombinant mouse PrCP using Mca-Ala-Pro-Lys(Dnp)-OH as substrate after 30 mins by continuous fluorometric assay
T1 sequence (Q7TMR0 whole entry): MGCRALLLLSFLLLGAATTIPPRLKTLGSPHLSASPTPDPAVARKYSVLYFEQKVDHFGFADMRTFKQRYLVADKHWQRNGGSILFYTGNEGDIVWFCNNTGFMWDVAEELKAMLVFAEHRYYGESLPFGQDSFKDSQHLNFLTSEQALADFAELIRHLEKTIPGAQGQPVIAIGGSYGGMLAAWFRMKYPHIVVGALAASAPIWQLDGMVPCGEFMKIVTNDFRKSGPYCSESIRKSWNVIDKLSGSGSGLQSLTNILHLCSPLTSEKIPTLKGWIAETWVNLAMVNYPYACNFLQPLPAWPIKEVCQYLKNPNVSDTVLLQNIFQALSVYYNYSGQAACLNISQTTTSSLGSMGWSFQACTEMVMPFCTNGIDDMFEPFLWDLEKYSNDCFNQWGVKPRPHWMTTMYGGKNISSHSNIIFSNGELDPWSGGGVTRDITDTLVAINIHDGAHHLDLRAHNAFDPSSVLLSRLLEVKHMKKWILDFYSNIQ

[2] = Fraction unbound in mouse 100% plasma; assay type: ADME, cell-free
[3] = Fraction unbound in human 100% plasma; assay type: ADME, cell-free
[4] = Half life in C57Bl/6 mouse at 2 mg/kg, iv and 10 mg/kg, po; assay type: ADME, organism-based; details: in vivo
[5] = Volume of distribution in C57Bl/6 mouse at 2 mg/kg, iv and 10 mg/kg, po; assay type: ADME, organism-based; details: in vivo
[6] = Oral bioavailability in C57Bl/6 mouse at 10 mg/kg; assay type: ADME, organism-based; details: in vivo
Mus musculus [7] = assay: Dose normalized AUC in C57Bl/6 mouse at 10 mg/kg, po; assay type: ADME, organism-based; design: dose 10 mg/kg, route oral; details: in vivo
[8] = Clearance in C57Bl/6 mouse at 2 mg/kg, iv and 10 mg/kg, po; assay type: ADME, organism-based; details: in vivo
[9] = Oral bioavailability in C57Bl/6 mouse at 2 mg/kg; assay type: ADME, organism-based; details: in vivo
[10] = Clearance in C57Bl/6 mouse at 1 mg/kg, iv and 2 mg/kg, po; assay type: ADME, organism-based; details: in vivo
Mus musculus [11] = assay: Dose normalized AUC in C57Bl/6 mouse at 2 mg/kg, po; assay type: ADME, organism-based; design: dose 2 mg/kg, route oral; details: in vivo
[12] = Half life in C57Bl/6 mouse at 1 mg/kg, iv and 2 mg/kg, po; assay type: ADME, organism-based; details: in vivo
[13] = Volume of distribution in C57Bl/6 mouse at 1 mg/kg, iv and 2 mg/kg, po; assay type: ADME, organism-based; details: in vivo

Row | SMILES | IC50 [1] | fraction unbound [2] | fraction unbound [3] | also measured
1 | Fc1ccc([C@H]2CN(CCc3ccccc3)CC[C@H]2c2cc(-c3ccc(Cl)cc3)n[nH]2)cc1 | 24 nM |  |  | 
2 | Fc1ccc([C@@H]2CN(Cc3ccc(Cl)cc3)CC[C@H]2c2cc(-c3ccc(Cl)cc3)n[nH]2)cc1 (racemic) |  | < 0.01 | < 0.01 | 
3 | Clc1ccc(-c2cc(C3(c4ccccc4)CCN(CCc4ccccc4)CC3)[nH]n2)cc1 |  | < 0.01 | 0.03 | 
4 | Cn1nc(-c2ccc(F)cc2)cc1C1(c2ccccc2)CCN(CCc2ccccc2)CC1 | 3.6 nM | < 0.01 | < 0.01 | 
5 | Fc1ccc(-c2cc(C3(c4ccccc4)CCN(CCc4ccccc4)CC3)[nH]n2)cc1 | 23 nM | < 0.01 | 0.07 | 
6 | Fc1ccc([C@@H]2CN(CCc3ccc(Cl)cc3)CC[C@H]2c2cc(-c3ccc(Cl)cc3)n[nH]2)cc1 (racemic) | 20 nM |  |  | 
7 | OC(CN1CC[C@@H](c2cc(-c3ccc(Cl)cc3)n[nH]2)[C@H](c2ccc(F)cc2)C1)c1ccccc1 (some centres undefined) | 5.9 nM |  |  | 
8 | Fc1ccc([C@@H]2CN(CCc3ccccc3)CC[C@H]2c2cc(-c3ccc(Cl)cc3)n[nH]2)cc1.O=C(O)C(F)(F)F | 2.2 nM | < 0.01 | 0.03 | bioavailability [9]: 33%; clearance [10]: 28.9 mL/min/kg; AUC/dose (Mus musculus [11]): 0.413 µM·kg·h/mg; half-life [12]: 4.8 h; Vd [13]: 13.3 L/kg

Second part, led by results:

Row | IC50 [1] | fraction unbound [2] | fraction unbound [3] | SMILES | also measured
9 | 220 nM |  |  | Clc1ccc(-c2cc([C@@H]3CC[C@@H](N4CCOCC4)C[C@H]3c3ccc(Br)cc3)[nH]n2)cc1 | 
10 | 30 nM |  |  | O=C(CN1CC[C@@H](c2cc(-c3ccc(Cl)cc3)n[nH]2)[C@H](c2ccc(F)cc2)C1)c1ccccc1 | 
11 | 56 nM |  |  | Fc1ccc([C@@H]2CN(CCC(F)(F)F)CC[C@H]2c2cc(-c3ccc(Cl)cc3)n[nH]2)cc1 (racemic) | 
12 | 4.7 nM |  |  | O=C([C@@H]1CC[C@@H](NCc2ccc(Cl)cc2)C[C@H]1c1ccc(F)cc1)N1CC(c2ccccc2)(c2ccccc2)C1 | 
13 |  | 0.04 | 0.02 | Cc1ccccc1[C@@H]1C[C@H](N2CCOCC2)CC[C@H]1C(=O)N1CC(c2ccccc2)(c2ccccc2)C1.O=C(O)C(F)(F)F | half-life [4]: 1.7 h; Vd [5]: 10.8 L/kg; bioavailability [6]: 7.8%; AUC/dose (Mus musculus [7]): 0.037 µM·kg·h/mg; clearance [8]: 72.2 mL/min/kg
14 |  | 0.04 | 0.01 | Cn1nc(-c2ccc(F)cc2)cc1C1(c2ccccn2)CCN(CCc2ccccc2)CC1 | 
